This note sets out measurements from patent US11332485B2, “Penicillin-binding protein inhibitors” (priority 2017, dated 2022).

One assay has as its system S. aureus ATCC 29213. Briefly: Broth microdilution MIC assay. It is filed as cell-based. As to conditions: Staphylococcus aureus, ATCC29213; broth microdilution, 16-20 hours at 37° C.; read-out: S. aureus 29213 MIC. In outline: (§1)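 MIC taken by eye as the lowest compound concentration showing no growth after 16-20 hours at 37° C. Cultures grown 3-5 h in cation-supplemented Mueller-Hinton broth were added to 2-fold compound dilution series at a starting density of 5×10^5 CFU/mL, following CLSI methods.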

The test system of assay [1] is hyper-permeable E. coli 901C. Briefly: Broth microdilution MIC assay. The class given is cell-based. As to conditions: Escherichia coli, read-out: E. coli 901C MIC. The method, boiled down:
as §1

Assay [2] addresses T1, PBP3 from Escherichia coli (Escherichia coli, UniProt P0AD68).
T1 construct: made in house
Kind of assay: Fluorescence polarization competition binding assay with Bocillin-FL. The text has this:
To determine the ability of boronic acid-based test PBP inhibitors to bind Penicillin Binding Proteins (PBPs), Bocillin-FL (fluorescently-labeled penicillin V; ThermoFisher Scientific) was used in a fluorescence polarization (FP) competition binding assay to assess boronic acid PBP inhibitor binding to PBP3 from Escherichia coli. PBP3 from Escherichia coli was cloned and purified as described previously (King, D. T, et al., ACS Infectious Diseases 2015, 1, 175-184). To establish assay conditions for competition binding, an enzyme titration/saturation binding experiment was performed. Bocillin-FL was prepared at […] in a buffer comprised of 50 mM Hepes (pH 8.0), 300 mM NaCl and 5% (v/v) glycerol. Saturation binding was performed by mixing […] of PBP3 ranging in concentrations from […] with 40 μl of the 0.2 μM Bocillin-FL solution, in individual wells of a black 384-well microplate. FP was measured immediately upon addition of PBP3 (Ex, Em), using a Cytation3 (BioTek) microplate reader and measured continuously for 60 minutes. […] The competition binding assay was validated using the beta-lactam ampicillin, with Bocillin-FL at a final concentration of 0.1 μM, PBP3 at a final concentration of 1.5 μM and concentrations of ampicillin from 0-1000 μM. PBP3 was incubated with ampicillin at different concentrations in a black 384-well microplate (Corning) for 30 minutes, then Bocillin-FL added and the FP immediately measured for 60 minutes. […] Binding assays for boronic acid PBP inhibitors were performed in an identical fashion. Representative results are shown in Table 3, where A represents a potency of >500 μM, B represents a potency between 30 μM and 500 μM inclusive, and C represents a potency of <30 μM. NT=Not Tested.

The next assay deals with E. coli DH5α/pLBII. Kind of assay: Broth microdilution MIC assay, empty vector control strain. The class given is cell-based. Conditions: Escherichia coli, read-out: E. coli DH5α/pLBII Microbiological Activity (MIC). The method, boiled down:
(§2)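 CLSI broth microdilution in cation-supplemented Mueller-Hinton broth, 2-fold compound dilutions, 5×10^5 CFU/mL inoculum, 16-20 h at 37° C, MIC read visually as lowest concentration without growth. E. coli DH5α carries CTX-M15 on pLBII under Lac promoter, or empty pLBII as control.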

In assay [3] the test system is E. coli DH5α/pLBII-CTX-M15. Kind of assay: Broth microdilution MIC assay, engineered strain producing CTX-M15. As to conditions: Escherichia coli, read-out: E. coli DH5α/pLBII-CTX-M15 Microbiological Activity (MIC). It is filed as cell-based, Escherichia coli. The method, boiled down: as §2
Assay [4] addresses T2, PBP1a from Escherichia coli (Escherichia coli, UniProt P02918).
T2 construct: made in house
Briefly: Radioligand competition binding assay with 14C-labeled boronic acid probe (Example 96). As to conditions: PBP 0.1 μM. The text has this: (§3) To determine the ability of boronic acid-based test PBP inhibitors to bind Penicillin Binding Proteins (PBPs), a radio-labelled boronic acid PBP inhibitor (Example 96) was used in competition binding assays to determine boronic acid PBP inhibitor binding to PBP1a or PBP1b from Escherichia coli. PBP1a and PBP1b were purified as described previously (Bertsche, U.; et al., J. Biol. Chem. 2005, 280 (45), 38096-38101; Born, P.; et al., J Biol. Chem. 2006. 281 (37), 26985-26993). To establish assay conditions for competition binding, an enzyme titration/saturation binding experiment was performed. Saturation binding was performed in a buffer comprised of 20 mM Tris (pH 7.5), 500 mM NaCl and 0.1% (v/v) TritonX-100, with PBP1a/PBP1b at a final concentration of 0.1 μM and 96 at final concentrations ranging from 0-100 μM. Mixtures were incubated for 60 minutes, then applied to Zeba Spin Desalting columns or plates (ThermoFisher Scientific) and centrifuged at 1000-1500×g for 2 minutes. The flow through, containing PBP bound with 96, was recovered and 100 μL mixed with 5 mL of UltimaGold liquid scintillation cocktail (Perkin Elmer), and the radioactivity counted using a Beckman Coulter LS 6500 Multipurpose scintillation counter. PBP binding of 96 approached saturation at 20 μM of ^14C-labeled probe. The competition binding assay was validated using the beta-lactam ampicillin, with 96 at a final concentration of 20 μM, PBP1a/PBP1b at a final concentration of 0.1 μM. PBP1a/PBP1b was incubated with ampicillin in a 96-well microplate for 60 minutes, then 96 was added and the mixtures incubated for an additional 60 minutes. The mixtures were then applied to Zeba Spin desalting plates and centrifuged at 1000×g for 2 minutes. The flow through was recovered and 100 μl mixed with 5 ml of UltimaGold liquid scintillation cocktail and the radioactivity counted. Ampicillin inhibited binding of 96 with an EC50 (the concentration of inhibitor required to reduce binding of 96 by 50%) of less than 0.5 μM. Binding assays with boronic acid PBP inhibitors were performed in an identical fashion. The potency of boronic acid PBP inhibitors was reported as the EC50 value.
(§4) Representative results are shown in Table 5, where A represents a potency of >100 μM, B represents a potency between 10 μM and 100 μM inclusive, and C represents a potency of <10 μM. NT=Not Tested.

Assay [5] addresses T3, PBP1b from Escherichia coli (Escherichia coli, UniProt P02919).
T3 construct: made in house
The description is as above. As to conditions: 14C-labeled probe 96 at 20 μM, PBP 0.1 μM; read-out: E. coli K12 PBP1b EC50.
Description: as §3, §4

[6] abbreviates: 14C-labeled probe 96 at 20 μM, read-out: E. coli K12 PBP1a EC50.
The mark [7] stands for this setting: E. coli K12 PBP1a EC50, 14C-labeled probe 96 at 20 μM.

Like-named read-outs stand apart in the source and are kept apart here.

T1 sequence (P0AD68 1-577): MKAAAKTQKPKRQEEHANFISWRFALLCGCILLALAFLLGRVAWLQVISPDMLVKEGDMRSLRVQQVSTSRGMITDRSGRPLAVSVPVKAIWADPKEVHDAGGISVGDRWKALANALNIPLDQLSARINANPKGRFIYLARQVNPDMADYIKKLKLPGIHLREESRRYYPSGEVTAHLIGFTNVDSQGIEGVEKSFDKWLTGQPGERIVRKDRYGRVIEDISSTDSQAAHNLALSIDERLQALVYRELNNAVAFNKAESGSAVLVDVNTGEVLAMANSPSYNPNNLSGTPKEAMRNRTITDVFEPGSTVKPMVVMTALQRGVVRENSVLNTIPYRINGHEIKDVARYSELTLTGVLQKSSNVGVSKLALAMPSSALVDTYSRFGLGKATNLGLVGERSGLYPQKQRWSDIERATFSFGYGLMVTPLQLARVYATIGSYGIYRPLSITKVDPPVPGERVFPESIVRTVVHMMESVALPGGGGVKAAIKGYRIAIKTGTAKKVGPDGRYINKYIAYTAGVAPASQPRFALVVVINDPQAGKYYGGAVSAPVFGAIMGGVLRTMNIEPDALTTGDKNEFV
T2 sequence (P02918 whole entry): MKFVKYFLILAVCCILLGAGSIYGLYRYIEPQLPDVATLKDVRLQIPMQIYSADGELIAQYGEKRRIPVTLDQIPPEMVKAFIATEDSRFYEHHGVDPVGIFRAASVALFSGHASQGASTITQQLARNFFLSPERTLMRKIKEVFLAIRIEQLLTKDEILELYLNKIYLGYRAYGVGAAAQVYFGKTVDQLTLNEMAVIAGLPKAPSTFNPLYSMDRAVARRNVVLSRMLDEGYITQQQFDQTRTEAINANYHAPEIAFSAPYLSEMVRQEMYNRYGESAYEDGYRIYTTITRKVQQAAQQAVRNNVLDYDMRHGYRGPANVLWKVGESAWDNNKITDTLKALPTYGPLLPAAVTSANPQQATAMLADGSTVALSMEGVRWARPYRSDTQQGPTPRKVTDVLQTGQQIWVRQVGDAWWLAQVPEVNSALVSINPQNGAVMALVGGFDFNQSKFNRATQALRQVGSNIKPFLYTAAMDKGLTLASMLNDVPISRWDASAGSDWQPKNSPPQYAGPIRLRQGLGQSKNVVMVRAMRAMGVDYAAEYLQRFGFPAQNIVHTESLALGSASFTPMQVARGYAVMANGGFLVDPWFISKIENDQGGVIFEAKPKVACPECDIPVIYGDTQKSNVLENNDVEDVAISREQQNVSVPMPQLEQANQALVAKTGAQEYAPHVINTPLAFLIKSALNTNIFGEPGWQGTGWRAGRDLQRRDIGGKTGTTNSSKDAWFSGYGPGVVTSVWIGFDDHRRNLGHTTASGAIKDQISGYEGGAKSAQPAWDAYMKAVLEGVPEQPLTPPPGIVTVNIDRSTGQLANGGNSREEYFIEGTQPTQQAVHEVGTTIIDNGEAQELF
T3 sequence (P02919 whole entry): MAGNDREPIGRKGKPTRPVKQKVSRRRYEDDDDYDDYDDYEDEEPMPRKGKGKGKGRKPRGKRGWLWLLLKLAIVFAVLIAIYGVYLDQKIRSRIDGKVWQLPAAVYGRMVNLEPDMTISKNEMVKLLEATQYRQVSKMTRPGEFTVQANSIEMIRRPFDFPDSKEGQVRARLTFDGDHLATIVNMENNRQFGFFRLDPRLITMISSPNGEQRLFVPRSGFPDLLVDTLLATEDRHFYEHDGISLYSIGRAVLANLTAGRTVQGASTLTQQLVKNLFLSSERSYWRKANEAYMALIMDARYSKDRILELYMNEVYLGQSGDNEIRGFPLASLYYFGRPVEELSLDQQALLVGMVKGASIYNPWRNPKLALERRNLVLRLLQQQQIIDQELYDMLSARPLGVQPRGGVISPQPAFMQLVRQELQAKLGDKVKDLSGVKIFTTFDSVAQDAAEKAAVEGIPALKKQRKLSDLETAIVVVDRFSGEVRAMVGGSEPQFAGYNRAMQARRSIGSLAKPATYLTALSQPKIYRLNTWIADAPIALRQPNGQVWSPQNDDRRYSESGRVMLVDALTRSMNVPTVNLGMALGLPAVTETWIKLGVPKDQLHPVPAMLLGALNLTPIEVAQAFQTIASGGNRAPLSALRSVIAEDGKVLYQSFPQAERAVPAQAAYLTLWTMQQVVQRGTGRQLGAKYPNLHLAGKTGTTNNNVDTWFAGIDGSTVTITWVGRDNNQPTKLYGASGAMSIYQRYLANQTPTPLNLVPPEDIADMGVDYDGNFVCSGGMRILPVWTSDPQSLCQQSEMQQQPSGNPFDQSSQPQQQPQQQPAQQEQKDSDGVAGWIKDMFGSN

Take `CCN1CCN(C(=O)NC(C(=O)N[C@H]2Cc3cc(OC)cc(C(=O)O)c3OB2O)c2csc(N)n2)C(=O)C1=O` (stereo partly drawn) [Example 38, (3R)-3-(2-(2-aminothiazol-4-yl)-2-(4-ethyl-2,3-dioxopiperazine-1-carboxamido)acetamido)-2-hydroxy-6-methoxy-3,4-dihydro-2H-benzo[e][1,2]oxaborinine-8-carboxylic acid]: the MIC with S. aureus ATCC 29213 is 64 to 128 µg/mL; in assay [1] it was under 64 µg/mL; with E. coli DH5α/pLBII it was 32 to 64 µg/mL; in assay [3] it was 32 to 64 µg/mL. The EC50 was over 500 µM in assay [2] and under 10 µM in assay [4] (setting [6]).
`CCN1CCN(C(=O)NC(C(=O)N[C@H]2Cc3cc(O)cc(C(=O)O)c3OB2O)c2csc(N)n2)C(=O)C1=O` (stereo partly drawn) [Example 39, (3R)-3-(2-(2-aminothiazol-4-yl)-2-(4-ethyl-2,3-dioxopiperazine-1-carboxamido)acetamido)-2,6-dihydroxy-3,4-dihydro-2H-benzo[e][1,2]oxaborinine-8-carboxylic acid]: the MIC in the assay on S. aureus ATCC 29213 is over 128 µg/mL; in assay [1], under 64 µg/mL; in the assay with E. coli DH5α/pLBII, 32 to 64 µg/mL; in assay [3] it was 32 to 64 µg/mL. The results for the EC50 in assay [2] and in assay [4] (setting [7]) were 30 to 500 µM and 10 to 100 µM, respectively.
In the case of `CN1CCN(C(=O)NC(C(=O)N[C@H]2Cc3cccc(C(=O)O)c3OB2O)c2csc(N)n2)C(=O)C1=O` (stereo partly drawn) [Example 43, (3R)-3-(2-(2-aminothiazol-4-yl)-2-(4-methyl-2,3-dioxopiperazine-1-carboxamido)acetamido)-2-hydroxy-3,4-dihydro-2H-benzo[e][1,2]oxaborinine-8-carboxylic acid], the MIC with S. aureus ATCC 29213 was 64 to 128 µg/mL; in assay [1] it was under 64 µg/mL; in the assay with E. coli DH5α/pLBII, 32 to 64 µg/mL; in assay [3], 32 to 64 µg/mL. Moreover, the results for the EC50 in assay [2] and in assay [4] (setting [6]) were 30 to 500 µM and over 100 µM, respectively.
Consider `Nc1nc(C(NC(=O)N2CCN(C3CC3)C(=O)C2=O)C(=O)N[C@H]2Cc3cccc(C(=O)O)c3OB2O)cs1` (stereo partly drawn) [Example 44, (3R)-3-(2-(2-aminothiazol-4-yl)-2-(4-cyclopropyl-2,3-dioxopiperazine-1-carboxamido)acetamido)-2-hydroxy-3,4-dihydro-2H-benzo[e][1,2]oxaborinine-8-carboxylic acid], for which the MIC is 64 to 128 µg/mL in the assay with S. aureus ATCC 29213, under 64 µg/mL in assay [1], 32 to 64 µg/mL with E. coli DH5α/pLBII and 32 to 64 µg/mL in assay [3]. For the same compound, the values for the EC50 in assay [2] and in assay [4] (setting [6]) were 30 to 500 µM and under 10 µM, respectively.
For the compound `CCN1CCN(CC(=O)NC(C(=O)N[C@H]2Cc3cccc(C(=O)O)c3OB2O)c2csc(N)n2)C(=O)C1=O` (stereo partly drawn) [Example 45, (3R)-3-(2-(2-aminothiazol-4-yl)-2-(2-(4-ethyl-2,3-dioxopiperazin-1-yl)acetamido)acetamido)-2-hydroxy-3,4-dihydro-2H-benzo[e][1,2]oxaborinine-8-carboxylic acid], the MIC in the assay with S. aureus ATCC 29213 is over 128 µg/mL; in assay [1], under 64 µg/mL; in the assay with E. coli DH5α/pLBII, 32 to 64 µg/mL; in assay [3], 32 to 64 µg/mL. Moreover, the values for the EC50 in assay [2] and in assay [4] (setting [6]) were 30 to 500 µM and under 10 µM, respectively.
As for `CCN1CCN(C(=O)N[C@@H](C(=O)N[C@H]2Cc3cccc(C(=O)O)c3OB2O)[C@H](C)O)C(=O)C1=O` [Example 47, (R)-3-((2R,3S)-2-(4-Ethyl-2,3-dioxopiperazine-1-carboxamido)-3-hydroxy-butanamido)-2-hydroxy-3,4-dihydro-2H-benzo[e][1,2]oxaborinine-8-carboxylic acid], the MIC was over 128 µg/mL with S. aureus ATCC 29213, under 64 µg/mL in assay [1], 8 to 16 µg/mL with E. coli DH5α/pLBII and 8 to 16 µg/mL in assay [3]. The EC50 is over 500 µM in assay [2] and under 10 µM in assay [4] (setting [6]).
As to `CCN1CCN(C(=O)N[C@@H](C(=O)N[C@H]2Cc3cccc(C(=O)O)c3OB2O)[C@@H](C)O)C(=O)C1=O` [Example 48, (R)-3-((2R,3R)-2-(4-Ethyl-2,3-dioxopiperazine-1-carboxamido)-3-hydroxy-butanamido)-2-hydroxy-3,4-dihydro-2H-benzo[e][1,2]oxaborinine-8-carboxylic acid], the MIC in the assay with S. aureus ATCC 29213 is over 128 µg/mL; in assay [1], under 64 µg/mL; with E. coli DH5α/pLBII it was 8 to 16 µg/mL; in assay [3], 8 to 16 µg/mL. The EC50 in assay [2] was 30 to 500 µM; in assay [4] (setting [6]), under 10 µM.
For the compound `Nc1nc(C(NC(=O)N2CCS(=O)(=O)CC2)C(=O)N[C@H]2Cc3cccc(C(=O)O)c3OB2O)cs1` (stereo partly drawn) [Example 65, (3R)-3-(2-(2-aminothiazol-4-yl)-2-(1,1-dioxidothiomorpholine-4-carboxamido)acetamido)-2-hydroxy-3,4-dihydro-2H-benzo[e][1,2]oxaborinine-8-carboxylic acid], the MIC was 64 to 128 µg/mL with S. aureus ATCC 29213, under 64 µg/mL in assay [1], 32 to 64 µg/mL in the assay on E. coli DH5α/pLBII and 32 to 64 µg/mL in assay [3]. Also, the figures for the EC50 in assay [2] and in assay [4] (setting [7]) were 30 to 500 µM and under 10 µM, respectively.
In the case of `CCN1CCN(C(=O)NC(Cc2ccccc2)C(=O)N[C@H]2Cc3cccc(C(=O)O)c3OB2O)C(=O)C1=O` (stereo partly drawn) [Example 79, (3R)-3-(2-(4-ethyl-2,3-dioxopiperazine-1-carboxamido)-3-phenylpropanamido)-2-hydroxy-3,4-dihydro-2H-benzo[e][1,2]oxaborinine-8-carboxylic acid], the MIC (in the assay with S. aureus ATCC 29213; in assay [1]) was under 64 µg/mL each time. Further, the EC50 in assay [2] was 30 to 500 µM; in assay [5] it was under 10 µM.
Take `C[C@@H](O)[C@@H](NC(=O)N1CCN(CCF)C(=O)C1=O)C(=O)N[C@H]1Cc2cccc(C(=O)O)c2OB1O` [Example 91, (R)-3-((2R,3R)-2-(4-(2-fluoroethyl)-2,3-dioxopiperazine-1-carboxamido)-3-hydroxybutanamido)-2-hydroxy-3,4-dihydro-2H-benzo[e][1,2]oxaborinine-8-carboxylic acid]: the MIC in the assay on S. aureus ATCC 29213 was over 128 µg/mL; in assay [1] it was under 64 µg/mL; in assay [3], 8 to 16 µg/mL. Further, the EC50 in assay [2] was over 500 µM; in assay [5], under 10 µM.
